# Results taken from article PMC10653547, “Synergistic effect of two antimicrobial peptides, BP203 and MAP-0403 J-2 with conventional antibiotics against colistin-resistant Escherichia coli and Klebsiella pneumoniae clinical isolates” (PLOS ONE, 2023).
# Tests used:
# [1] = test system: colistin-resistant E. coli clinical isolates; assay: Checkerboard assay for synergy testing; format: cell-based, Escherichia coli
# Experimental: (§1) The synergistic activities of various two-antimicrobial combinations against colistin-resistant E. coli and K. pneumoniae isolates were evaluated using the checkerboard assay, which was performed in 96-well plates. […] Two-fold serial dilutions of peptides and antibiotics were independently prepared in CAMHB. Afterward, a mixture of different concentrations of the antibiotics and peptides was added to the wells of the microplates. Antibiotics and peptides were also dispended alone in the first row and the first column, respectively. Bacterial inoculum was added to the 96-well plate to achieve a final concentration of 5 × 10^5 CFU/mL. Then, plates were incubated at 37 °C for 20–24 h. MICs were recorded as the minimum concentration of antimicrobial agents without bacterial growth. The interaction between the antimicrobials was determined by calculating the fractional inhibitory concentration index (FICI) according to the formula: FICI = FIC(drug A) + FIC(drug B), where FIC = the MIC of the drug when in the combination/MIC of drug tested individually.
# [2] = test system: colistin-resistant K. pneumoniae clinical isolates; assay: Checkerboard assay for synergy testing; format: cell-based, Klebsiella pneumoniae
# Experimental: as §1
# [3] = isolate EC-01, checkerboard Rifampicin+BP203
# [4] = isolate EC-01, checkerboard Rifampicin+MAP-0403 J-2
# [5] = isolate EC-02, checkerboard Rifampicin+BP203
# [6] = isolate EC-02, checkerboard Rifampicin+MAP-0403 J-2
# [7] = isolate EC-03, checkerboard Rifampicin+BP203
# [8] = isolate EC-03, checkerboard Rifampicin+MAP-0403 J-2
# [9] = isolate EC-04, checkerboard Rifampicin+BP203
# [10] = isolate EC-04, checkerboard Rifampicin+MAP-0403 J-2
# [11] = isolate EC-05, checkerboard Rifampicin+BP203
# [12] = isolate EC-05, checkerboard Rifampicin+MAP-0403 J-2
# [13] = isolate EC-06, checkerboard Rifampicin+BP203
# [14] = isolate EC-06, checkerboard Rifampicin+MAP-0403 J-2
# [15] = isolate EC-07, checkerboard Rifampicin+BP203
# [16] = isolate EC-07, checkerboard Rifampicin+MAP-0403 J-2
# [17] = isolate EC-08, checkerboard Rifampicin+BP203
# [18] = isolate EC-08, checkerboard Rifampicin+MAP-0403 J-2
# [19] = isolate EC-09, checkerboard Rifampicin+BP203
# [20] = isolate EC-09, checkerboard Rifampicin+MAP-0403 J-2
# [21] = isolate EC-10, checkerboard Rifampicin+BP203
# [22] = isolate EC-10, checkerboard Rifampicin+MAP-0403 J-2
# [23] = isolate KP-01, checkerboard Rifampicin+BP203
# [24] = isolate KP-01, checkerboard Rifampicin+MAP-0403 J-2
# [25] = isolate KP-02, checkerboard Rifampicin+BP203
# [26] = isolate KP-02, checkerboard Rifampicin+MAP-0403 J-2
# [27] = isolate KP-03, checkerboard Rifampicin+BP203
# [28] = isolate KP-03, checkerboard Rifampicin+MAP-0403 J-2
# [29] = isolate KP-04, checkerboard Rifampicin+BP203
# [30] = isolate KP-04, checkerboard Rifampicin+MAP-0403 J-2
# [31] = isolate KP-05, checkerboard Rifampicin+BP203
# [32] = isolate KP-05, checkerboard Rifampicin+MAP-0403 J-2
# [33] = isolate KP-06, checkerboard Rifampicin+BP203
# [34] = isolate KP-06, checkerboard Rifampicin+MAP-0403 J-2
# [35] = isolate KP-07, checkerboard Rifampicin+BP203
# [36] = isolate KP-07, checkerboard Rifampicin+MAP-0403 J-2
# [37] = isolate KP-08, checkerboard Rifampicin+BP203
# [38] = isolate KP-08, checkerboard Rifampicin+MAP-0403 J-2
# [39] = isolate KP-09, checkerboard Rifampicin+BP203
# [40] = isolate KP-09, checkerboard Rifampicin+MAP-0403 J-2
# [41] = isolate KP-10, checkerboard Rifampicin+BP203
# [42] = isolate KP-10, checkerboard Rifampicin+MAP-0403 J-2
compound,measurement,setting,value
"CO[C@H]1/C=C/O[C@@]2(C)Oc3c(C)c(O)c4c(O)c(c(/C=N/N5CCN(C)CC5)c(O)c4c3C2=O)NC(=O)/C(C)=C\C=C\[C@H](C)[C@H](O)[C@@H](C)[C@@H](O)[C@@H](C)[C@H](OC(C)=O)[C@@H]1C [RIF, rifampicin]",MIC alone,[1]; [3],2 µg/mL
same,MIC combination,[1]; [3],1 µg/mL
same,MIC alone,[1]; [4],4 µg/mL
same,MIC combination,[1]; [4],0.5 µg/mL
same,MIC alone,[1]; [5],4 µg/mL
same,MIC combination,[1]; [5],0.25 µg/mL
same,MIC alone,[1]; [6],8 µg/mL
same,MIC combination,[1]; [6],2 µg/mL
same,MIC alone,[1]; [7],4 µg/mL
same,MIC combination,[1]; [7],1 µg/mL
same,MIC alone,[1]; [8],8 µg/mL
same,MIC combination,[1]; [8],0.25 µg/mL
same,MIC alone,[1]; [9],4 µg/mL
same,MIC combination,[1]; [9],1 µg/mL
same,MIC alone,[1]; [10],16 µg/mL
same,MIC combination,[1]; [10],4 µg/mL
same,MIC alone,[1]; [11],2 µg/mL
same,MIC combination,[1]; [11],0.5 µg/mL
same,MIC alone,[1]; [12],8 µg/mL
same,MIC combination,[1]; [12],2 µg/mL
same,MIC alone,[1]; [13],4 µg/mL
same,MIC combination,[1]; [13],1 µg/mL
same,MIC alone,[1]; [14],8 µg/mL
same,MIC combination,[1]; [14],1 µg/mL
same,MIC alone,[1]; [15],4 µg/mL
same,MIC combination,[1]; [15],1 µg/mL
same,MIC alone,[1]; [16],16 µg/mL
same,MIC combination,[1]; [16],4 µg/mL
same,MIC alone,[1]; [17],2 µg/mL
same,MIC combination,[1]; [17],0.5 µg/mL
same,MIC alone,[1]; [18],8 µg/mL
same,MIC combination,[1]; [18],0.25 µg/mL
same,MIC alone,[1]; [19],4 µg/mL
same,MIC combination,[1]; [19],2 µg/mL
same,MIC alone,[1]; [20],8 µg/mL
same,MIC combination,[1]; [20],0.5 µg/mL
same,MIC alone,[1]; [21],2 µg/mL
same,MIC combination,[1]; [21],0.5 µg/mL
same,MIC alone,[1]; [22],8 µg/mL
same,MIC combination,[1]; [22],0.5 µg/mL
same,MIC alone,[2]; [23],512 µg/mL
same,MIC combination,[2]; [23],16 µg/mL
same,MIC alone,[2]; [24],256 µg/mL
same,MIC combination,[2]; [24],16 µg/mL
same,MIC alone,[2]; [25],512 µg/mL
same,MIC combination,[2]; [25],4 µg/mL
same,MIC alone,[2]; [26],256 µg/mL
same,MIC combination,[2]; [26],16 µg/mL
same,MIC alone,[2]; [27],32 µg/mL
same,MIC combination,[2]; [27],4 µg/mL
same,MIC alone,[2]; [28],32 µg/mL
same,MIC combination,[2]; [28],2 µg/mL
same,MIC alone,[2]; [29],128 µg/mL
same,MIC combination,[2]; [29],4 µg/mL
same,MIC alone,[2]; [30],256 µg/mL
same,MIC combination,[2]; [30],32 µg/mL
same,MIC alone,[2]; [31],16 µg/mL
same,MIC combination,[2]; [31],1 µg/mL
same,MIC alone,[2]; [32],16 µg/mL
same,MIC combination,[2]; [32],1 µg/mL
same,MIC alone,[2]; [33],512 µg/mL
same,MIC combination,[2]; [33],8 µg/mL
same,MIC alone,[2]; [34],256 µg/mL
same,MIC combination,[2]; [34],32 µg/mL
same,MIC alone,[2]; [35],32 µg/mL
same,MIC combination,[2]; [35],4 µg/mL
same,MIC alone,[2]; [36],32 µg/mL
same,MIC combination,[2]; [36],2 µg/mL
same,MIC alone,[2]; [37],16 µg/mL
same,MIC combination,[2]; [37],4 µg/mL
same,MIC alone,[2]; [38],16 µg/mL
same,MIC combination,[2]; [38],2 µg/mL
same,MIC alone,[2]; [39],512 µg/mL
same,MIC combination,[2]; [39],32 µg/mL
same,MIC alone,[2]; [40],256 µg/mL
same,MIC combination,[2]; [40],128 µg/mL
same,MIC alone,[2]; [41],32 µg/mL
same,MIC combination,[2]; [41],4 µg/mL
same,MIC alone,[2]; [42],32 µg/mL
same,MIC combination,[2]; [42],2 µg/mL
